Data set [1] concerns NCl-H460 cells. As to the kind of experiment: tumor cell uptake/binding experiment with I125-labeled derivative. The format is cell-based, human. The protocol: FIG. 6 The time dependence of uptake of (2S,4S)-2-Amino-4-(4-[I-125]-iodo-benzyl)-pentanedioic acid was determined. H460 cells were incubated with 0.25 MBq (2S,4S)-2-Amino-4-(4-[I-125]-iodo-benzyl)-pentanedioic acid for up to 60 min and the cell-bound fraction was determined after 10, 20, 30 and 60 min).
In a next experiment, NCl-H460 cells were incubated with [I125]-labeled (2S,4S)-2-Amino-4-(3-[4-[I-125]-iodophenoxy]propylypentanedioic acid for up to 30 min and the cell-bound fraction was determined. Approximately 12% of applied activity was bound to the cells after 30 min incubation (FIG. 2).
FIG. 2: E xamination of biological activity of (2S,4S)-2-Amino-4-(3-[4-[I-125]-iodophenoxy]propylypentanedioic acid in a tumor cell uptake/binding experiment. (NCl-H460 cells, up to 30 min incubation with I125-labeled derivative).
Cell uptake & Retention of (2S,4S)-2-Amino-4-(4-[1-125]-iodo-benzyl)-pentanedioic acid—For determination of the biological activity of (2S,4S)-2-Amino-4-(4-[I-125]-iodo-benzyl)-pentanedioic acid, the I-125 labeled compound was used as tracer in a cell uptake experiment using H460 (human NSCLC) cells. Approximately 100.000 cells were incubated with 0.25 MBq (2S,4S)-2-Amino-4-(4-[I-125]-iodo-benzyl)-pentanedioic acid for up to 60 minutes in PBS-buffer containing 0.1% BSA and the cell-bound fraction was determined. […] Approximately 22,3% of applied dose was taken up by the cells during the 60 min incubation period (see FIG. 6).

Data set [2] relates to NCl-H460 cells. As to the kind of experiment: cell competition experiment with I125-labeled derivative as tracer. The format is cell-based, human. The protocol: To determine the specificity of (2S,4S)-2-Amino-4-(4-hydroxy-3-[1-125]-iodobenzyl)-pentanedioic acid, the compound was used as tracer in a cell competition experiment in H460 tumor cells against an excess of L-Glutamic acid (1 mM).
FIG. 3: Examination of biological activity of (2S,4S)-2-Amino-4-(3-[4-[I-125]-iodophenoxy]propylypentanedioic acid in a cell competition experiment. (NCl-H460 cells, 30 min incubation with I125-labeled derivative in PBS-buffer, concentration of “cold” derivative 1 mM).
FIG. 5: Determination of biological activity of (2S,4S)-2-Amino-4-(4-hydroxy-3-[I-125]-iodobenzyl)-pentanedioic acid in a cell competition experiment. (NCl-H460 cells, 10 min incubation with [I125]-labeled derivative in PBS-buffer, concentration of L-Glutamate 1 mM).

The test system of data set [3] is NCl-H460 (human NSCLC) tumor cells. In words: cell competition experiment with 3H-glutamic acid as tracer, NCl-H460 cells. Format: cell-based. The protocol:
FIG. 9 Examination of biological activity of (S)-2-Amino-5-(4-iodobenzyl)-hexanedioic acid in a cell-competition-experiment (H460 cells, 30 min incubation with 3H-glutamic acid in PBS-Puffer, concentration of competitor 1 mM and 0.1 mM).
The specificity of binding to NCl-H460 (human NSCLC) tumor cells was examined using 3H-Glutamic acid as tracer and (2S,4S)-2-Amino-4-(3-[4-iodophenoxy]propyl)-pentanedioic acid in concentrations ranging from 4 μM to 1 mM.
(§1) The specificity of binding was examined in a cell competition experiment using 3H-glutamic acid as tracer and (2S,4S)-2-Amino-4-(4-iodo-benzyl)-pentanedioic acid in excess (1 mM) to compete for transporter.
FIG. 1: Concentration dependent blocking of 3H-Glutamic acid uptake in H460 cells using different concentrations of (2S,4S)-2-Amino-4-(3-[4-iodophenoxy]propyl)-pentanedioic acid.
(§2) FIG. 4: Examination of biological activity of (2S,4S)-2-Amino-4-(4-iodo-benzyl)-pentanedioic acid in a cell competition experiment. (NCl-H460 cells, A549 cells, 10 min incubation with 1 μCi 3H-Glutamic acid in PBS-buffer, concentration of test compound 1 mM).
The ability of (S)-2-Amino-5-(4-iodobenzyl)-hexanedioic acid to compete with uptake of glutamic acid into tumor cells was examined. Therefore, tumor cells were co-incubated with 3H-labeled glutamic acid and (S)-2-Amino-5-(4-iodobenzyl)-hexanedioic acid. This compounds was used in large excess to the tracer 3H-glutamic acid. Two concentrations were examined (1mM an 0.1 mM).

A further data set concerns H460 tumor cells. As to the kind of experiment: retention of activity in tumor cells (efflux). Format: cell-based, human. The settings on record: H460 cells loaded 30 min; after 30 min in new PBS-buffer (efflux conditions). The protocol:
FIG. 7 Examination of retention of (2S,4S)-2-Amino-4-(4-[I-125]odo-benzyl)-pentanedioic acid in H460 tumor cells. H460 cells were loaded with 0.25 MBq (2S,4S)-2-Amino-4-(4-[I-125]-iodo-benzyl)-pentanedioic acid for 30 min in PBS/BSA. After washing, the cells were incubated with new buffer (without radioactivity) for additional 10, 20, 30 min. The release of radioactivity into the supernatant as well as the retention inside the cells was determined.
In a second experiment, the retention of activity in tumor cells was examined. H460 cells were loaded with 0.25 MBq (2S,4S)-2-Amino-4-(4-[I-125]-iodo-benzyl)-pentanedioic acid for 30 minutes in PBS/BSA-buffer. After this uptake, the buffer was removed and the cells were washed with PBS. The cells were then incubated with new PBS-buffer (without activity) for up to 30 min. The release of activity into the supernatant as well as the retention of activity inside the cells was examined. It was discovered, that more than 75% of activity were retained in the tumor cells after 30 min under these efflux conditions (see FIG. 7).

The subject of the next data set is H460 tumor bearing mice. As to the kind of experiment: Biodistribution in H460 tumor bearing mice. Format: in vivo, NMRI (nu/nu) mice. The following applies: for Bilanz/summary Recovery / Bilanz/summary urine: in % (unit assumed). The protocol:
Biodistribution in H460 tumor bearing mice. To test the pharmacokinetic properties of (2S,4S)-2-Amino-4-(4-[I-125]-iodo-benzyl)-pentanedioic acid, the iodinated compound was examined in H460 tumor bearing mice. NMRI (nu/nu) mice were inoculated with H460 tumor cells 8 to 10 days before the biodistribution studies. 185 kBq of activity of the tracer was injected into each mouse. n=3 mice were used at every time point. After injection of the I125-labeled compound, mice were sacrificed at the time points indicated. All organs were removed and radioactivity was determined using a γ-counter. […] Very rapid clearance of radioactivity takes place via the kidneys, with more than 90% of activity being excreted after 30 min p.i.

Data set [4] concerns NCl-H460 (human NSCLC) tumor bearing nude-mice. In words: SPECT imaging in tumor bearing nude-mice. Format: in vivo, nude-mice (NMRI nu/nu). The following applies: approx. 10 MBq; images acquired at 60 min p.i. for 35 min. The protocol:
FIG. 8 SPECT imaging with (2S,4S)-2-Amino-4-(4-[I-125]odo-benzyl)-pentanedioic acid after injection into H460 tumor bearing mouse.
SPECT imaging. (2S,4S)-2-Amino-4-(4-[I-125]-iodo-benzyl)-pentanedioic acid was examined in NCl-H460 (human NSCLC) tumor bearing nude-mice (NMRI nu/nu). Approx. 10 MBq of (2S,4S)-2-Amino-4-(4-[I-125]-iodo-benzyl)pentanedioic acid was injected into the mouse. SPECT imaging was performed using a γ-camera (Nucline SPIRIT DH-V). Images were aquired at 60 min p.i. for 35 min with 60 sec/frame.

In data set [5] the test system is A549 (human NSCLC cell line). As to the kind of experiment: cell competition experiment with 3H-glutamic acid as tracer, A549 cells. The following applies: test compound 1 mM, 10 min incubation with 1 μCi 3H-Glutamic acid in PBS-buffer. Format: cell-based. The protocol:
as §1, §2

In the case of `N[C@@H](C[C@H](CCCOc1ccc([125I])cc1)C(=O)O)C(=O)O` [(2S,4S)-2-Amino-4-(3-[4-[I-125]-iodophenoxy]propyl)-pentanedioic acid], the cell-bound fraction entry with NCl-H460 cells [1] (NCl-H460 cells, after 30 min incubation) is listed as “Approximately 12 % of applied activity”. Also, in the data set with NCl-H460 cells [2] (NCl-H460 cells, 30 min incubation in PBS-buffer, cold derivative 1 mM), the “binding of I125 tracer with cold derivative in excess” value was “a large decrease in binding was observed”.

`N[C@@H](C[C@H](CCCOc1ccc(I)cc1)C(=O)O)C(=O)O` [(2S,4S)-2-Amino-4-(3-[4-iodophenoxy]propyl)-pentanedioic acid]: the “uptake of 3H-glutamic acid (blocking)” value in data set [3] (NCl-H460 cells, test compound 4 μM to 1 mM) is on record as “able to reduce the uptake of glutamic acid in NCl-H460 cells in a concentration dependent manner”.

Take `N[C@@H](C[C@H](Cc1ccc([125I])cc1)C(=O)O)C(=O)O` [(2S,4S)-2-Amino-4-(4-[I-125]-iodo-benzyl)-pentanedioic acid]: the “uptake by the cells” value in the data set on NCl-H460 cells [1] (H460 cells, 0.25 MBq, 60 min incubation, PBS-buffer containing 0.1% BSA) is “Approximately 22,3 % of applied dose”. Moreover, in the data set on NCl-H460 cells [1] (H460 cells, 0.25 MBq, up to 60 min, PBS-buffer containing 0.1% BSA), the “time dependence of uptake” value is on record as “A time-dependent uptake was observed”. Also, in the data set with H460 tumor cells, the “activity retained in the tumor cells” value is on record as “more than 75 % of activity”. In the data set on H460 tumor bearing mice (0.5 h), this molecule had a Bilanz/summary carcass of 3.4%, a Bilanz/summary organs of 10.2%, a blood of 0.28 % Dosis/g and a gallbladder of 8.09 % Dosis/g. In the data set with H460 tumor bearing mice (0.5 h), this molecule showed an intestine of 1.26 % Dosis/g, a kidney of 2.14 % Dosis/g, a liver of 0.25 % Dosis/g and a pancreas of 0.62 % Dosis/g. Besides, in the data set with H460 tumor bearing mice (0.5 h), the thyroid is listed as 0.43 % Dosis/g, the tumor amounted to 4.12 % Dosis/g, the “Bilanz/summary Recovery” value is 112.7 and the Bilanz/summary urine was 99.1. In addition, the “uptake in the tumor” value with H460 tumor bearing mice (30 min p.i., 185 kBq) is given as 4.12 % injected dose per gram of tumor. For the same molecule, in the data set with H460 tumor bearing mice (1 h), the Bilanz/summary carcass was found to be 2.2%, the Bilanz/summary faeces was 0.7%, the Bilanz/summary organs was 6.8% and the blood was 0.13 % Dosis/g. In the data set with H460 tumor bearing mice (1 h), this molecule yielded a gallbladder of 5.00 % Dosis/g, an intestine of 0.85 % Dosis/g, a kidney of 0.83 % Dosis/g and a liver of 0.07 % Dosis/g. Besides, in the data set on H460 tumor bearing mice (1 h), the pancreas was 0.12 % Dosis/g, the thyroid is 0.72 % Dosis/g, the tumor worked out at 3.68 % Dosis/g and the “Bilanz/summary Recovery” value amounted to 109.3. The Bilanz/summary urine in the data set with H460 tumor bearing mice (1 h) was 99.6. In addition, in the data set with H460 tumor bearing mice (2 h), the Bilanz/summary carcass came to 1.1%, the Bilanz/summary faeces came to 2%, the Bilanz/summary organs worked out at 3.8% and the blood is 0.08 % Dosis/g. Further, in the data set on H460 tumor bearing mice (2 h), the gallbladder was 4.73 % Dosis/g, the intestine was 0.78 % Dosis/g, the kidney was 0.24 % Dosis/g and the liver was 0.03 % Dosis/g. Besides, in the data set with H460 tumor bearing mice (2 h), the pancreas stood at 0.06 % Dosis/g, the thyroid is recorded as 0.42 % Dosis/g, the tumor is 1.90 % Dosis/g and the “Bilanz/summary Recovery” value was 109.7. In addition, in the data set on H460 tumor bearing mice (2 h), the Bilanz/summary urine turned out to be 102.8. In the data set with H460 tumor bearing mice (4 h), this molecule yielded a Bilanz/summary carcass of 0.5%, a Bilanz/summary faeces of 0.1%, a Bilanz/summary organs of 2.8% and a blood of 0.06 % Dosis/g. In the data set on H460 tumor bearing mice (4 h), this molecule displayed a gallbladder of 6.63 % Dosis/g, an intestine of 1.32 % Dosis/g, a kidney of 0.10 % Dosis/g and a liver of 0.03 % Dosis/g. Also, in the data set with H460 tumor bearing mice (4 h), the pancreas is on record as 0.03 % Dosis/g, the thyroid was found to be 1.05 % Dosis/g, the tumor was 1.55 % Dosis/g and the “Bilanz/summary Recovery” value is on record as 115.3. Moreover, the Bilanz/summary urine in the data set on H460 tumor bearing mice (4 h) stood at 111.9. The “activity excreted via the kidneys” value in the data set on H460 tumor bearing mice (after 30 min p.i.) was “more than 90 % of activity”. Also, the “tumor visibility in SPECT-images” value in data set [4] is reported as “The tumor was very well visible”.

Turning to `N[C@@H](C[C@H](Cc1ccc(O)c([125I])c1)C(=O)O)C(=O)O` [(2S,4S)-2-Amino-4-(4-hydroxy-3-[I-125]-iodobenzyl)-pentanedioic acid], the “uptake of I125 tracer against excess of L-Glutamic acid” value in the data set on NCl-H460 cells [2] (H460 cells, 10 min incubation in PBS-buffer, L-Glutamate 1 mM) is “the uptake was blockable by excess of glutamic acid”.

For the molecule `N[C@@H](C[C@H](Cc1ccc(I)cc1)C(=O)O)C(=O)O` [(2S,4S)-2-Amino-4-(4-iodo-benzyl)-pentanedioic acid], the “uptake of 3H-glutamic acid” value was “able to reduce the uptake of glutamic acid” in data set [3] (NCl-H460 cells, test compound 1 mM, 10 min incubation with 1 μCi 3H-Glutamic acid in PBS-buffer) and “able to reduce the uptake of glutamic acid” in data set [5].

Regarding `N[C@@H](CCC(Cc1ccc(I)cc1)C(=O)O)C(=O)O` (stereo partly drawn) [(S)-2-Amino-5-(4-iodobenzyl)-hexanedioic acid], in data set [3] (H460 cells, 30 min incubation, competitor 1 mM and 0.1 mM), the “uptake of 3H-glutamic acid” value is on record as “strongly reduces the uptake of glutamic acid”.

(Values after patent US20130034497A1, “IODINE-LABELED HOMOGLUTAMIC ACID AND GLUTAMIC ACID DERIVATIVES” (PIRAMAL IMAGING SA, priority 2009, published 2013).)
